According to article PMC9688344, “[^225Ac]Ac-SibuDAB for Targeted Alpha Therapy of Prostate Cancer: Preclinical Evaluation and Comparison with [^225Ac]Ac-PSMA-617” (Cancers, 2022):

Tested on: BALB/c nude mice
Assay: Comparison of treated (cured) therapy mice with healthy mice at study end
Format: in vivo
Experimental: After administration of the radioligands, the mice were monitored over 8 weeks using the same measures as previously published by Umbricht et al.. The relative body mass was defined as [BMx/BM0], where BMx is the body mass in grams at a given Day x and BM0 is the body mass in grams at Day 0. The tumor dimension was determined by measuring the longest tumor axis (L) and its perpendicular axis (W) with a digital caliper. The tumor volume (V) was calculated according to the equation [V = 0.5 × (LW^2)]. The relative tumor volume was defined as [TVx/TV0], where TVx is the tumor volume in mm^3 at a given Day x, and TV0 is the tumor volume in mm^3 at Day 0. Endpoint criteria that required euthanasia were defined as (i) body mass loss of >15%, (ii) a tumor volume of >800 mm^3, (iii) a combination of body mass loss of >10% and a tumor volume of >700 mm^3 or, (iv) signs of unease and pain or a combination thereof using a scoring system as previously reported. The median survival of mice of each group was assessed with Kaplan–Meier curves. Potential early side effects for mice that survived until study end were determined based on blood chemistry and organ-to-brain mass ratios on Day 56 by comparison to values obtained from an additional group of therapy-naïve mice (n = 4) without tumors but of the same age (Supplementary Material: Section S9). […]
10. Comparison of [225Ac]Ac-SibuDAB-Treated Mice with Healthy Mice at Study End Purpose: To investigate whether a successful tumor treatment with [225Ac]Ac- […]
compared to treatment-naïve, non-tumor-bearing mice on Day 56.
Methods: In order to assess the tolerability of the treatment, the body mass, the organ masses and organ-to-brain mass ratios as well as blood chemistry of the cured mice were compared to those of healthy, non-tumor-bearing BALB/c nude mice on Day 56.
Results: Survival: Targeted alpha therapy using [225Ac]Ac-SibuDAB was very effec-tive and all mice treated with 5 kBq, 10 kBq or 30 kBq of this radioligand survived until […]
Body Mass: The body mass of mice that were effectively treated with [225Ac]Ac-SibuDAB was in the same range as for healthy, non-tumor-bearing control mice at the end of the study on Day 56 (p>0.05) ( Table S11).

## CC(C)Cc1ccc(C(C)C(=O)NC(CCN)C(=O)NCCCCC(NC(=O)CN2CCN(CC(=O)[O-])CCN(CC(=O)[O-])CCN(CC(=O)[O-])CC2)C(=O)NCC2CCC(C(=O)NC(Cc3ccc4ccccc4c3)C(=O)NCCCCC(NC(=O)NC(CCC(=O)O)C(=O)O)C(=O)O)CC2)cc1.[225Ac+3] (stereo not drawn) [[^225Ac]Ac-SibuDAB]
Day 56, 5 kBq
  ALB: 25 ± 2 g/L
  ALP: 93 ± 10 U/L
  BUN: 6.4 ± 1.2 mmol/L
  Brain mass: 403 ± 14 mg
  Kidney mass: 252 ± 15 mg
  Kidney-to-brain mass ratio: 0.63 ± 0.03
  Liver mass: 1079 ± 47 mg
  Liver-to-brain mass ratio: 2.7 ± 0.1
  RBM (relative body mass): 1.13 ± 0.05
  Spleen mass: 113 ± 17 mg
  Spleen-to-brain mass ratio: 0.28 ± 0.04
  TBIL: 4.0 ± 0.9 µmol/L
Day 56, 10 kBq
  ALB: 26 ± 2 g/L
  ALP: 85 ± 7 U/L
  BUN: 7.3 ± 0.8 mmol/L
  Brain mass: 384 ± 18 mg
  Kidney mass: 260 ± 11 mg
  Kidney-to-brain mass ratio: 0.68 ± 0.04
  Liver mass: 1139 ± 83 mg
  Liver-to-brain mass ratio: 3.0 ± 0.2
  RBM (relative body mass): 1.12 ± 0.03
  Spleen mass: 116 ± 32 mg
  Spleen-to-brain mass ratio: 0.31 ± 0.09
  TBIL: 3.2 ± 0.4 µmol/L
Day 56, 30 kBq
  ALB: 22 ± 1 g/L
  ALP: 83 ± 2 U/L
  Adverse events in cured mice compared to healthy mice: No obvious adverse events
  BUN: 7.2 ± 0.7 mmol/L
  Brain mass: 408 ± 16 mg
  Kidney mass: 252 ± 24 mg
  Kidney-to-brain mass ratio: 0.62 ± 0.05
  Liver mass: 1096 ± 79 mg
  Liver-to-brain mass ratio: 2.7 ± 0.2
  RBM (relative body mass): 1.11 ± 0.02
  Spleen mass: 127 ± 23 mg
  Spleen-to-brain mass ratio: 0.31 ± 0.07
  TBIL: 4.3 ± 0.5 µmol/L
Cured mice, Day 56, range over groups
  Kidney-to-brain mass ratio: 0.62–0.68
Effectively treated PC-3 PIP tumor-bearing mice
  Tolerability of therapy (body mass increasing over time): well tolerated
